The values below come from patent US20090156569A1, “ORAL CONTRACEPTIVE SPRAY” (N.V. Organon, priority 2007, published 2009).

Values after ≈ are worked out from the molar mass of the structure shown. Read-outs that look alike come from different tables or passages of the source.

Data set [1] in a line: Solubility of the active ingredients in liquid solutions (Liquids 1-5). Type of data set: physicochemical. The settings on record: for solubility: aqueous with cosolvent or surfactant or cyclodextrin. The method, then: Solutions were prepared essentially according to the procedure as described in Example 1. The solubility of each one of the active ingredients desogestrel, 3-β-hydroxydesogestrel, 3-keto desogestrel and ethinyl estradiol in these solutions was tested.

Details of data set [2]: species or system human. The settings on record: in vivo. As to the method: Sixteen healthy female subjects were treated with 0.1 ml of the oral spray as described in Example 1 or with Marvelon® tablets (150 μg desogestrel, 30 μg ethinyl estradiol) in a cross over design. The spray was administered sublingually. Marvelon® was ingested. Serum concentration versus time profiles were obtained for etonogestrel and plasma concentration versus time profiles were obtained for ethinyl estradiol. FIGS. 2, 3, 4 and 5 show the average values of the serum/plasma concentrations versus time profiles.
This leads to the conclusion that a lower dose of either etonogestrel, or ethinyl estradiol, or both is possible for oral mucosal administration.

For data set [3] the following is noted: exposure of etonogestrel after oral ingestion as its prodrug desogestrel; cited from earlier work.
A short description of data set [4]: Cross-over pharmacokinetic study: sublingual oral spray (75 μg etonogestrel) versus ingested Cerazette tablet. Format: in vivo, human. The settings on record: oral mucosal administration of etonogestrel; FIGS. 6 and 7. The method, then: Sixteen healthy female subjects were treated with 0.1 ml of oral spray comprising the liquid as depicted in table 6 to administer 75 μg etonogestrel, or with Cerazette® tablets (75 μg desogestrel) in a cross over design. The spray has been administered sublingually. Cerazette® has been ingested. Serum concentration versus time profiles were obtained for etonogestrel.
This leads to the conclusion that a lower dose of either etonogestrel is possible for oral mucosal administration to achieve a similar pharmacological effect.

[5] abbreviates: Liquid 1: water 25, ethanol 20, glycerol 25, propylene glycol 25, polysorbate 80 5 % v/v, read-out: Solubility in Liquid 1.
Setting [6] is: Liquid 2: water 25, ethanol 25, glycerol 20, propylene glycol 25, polysorbate 80 5 % v/v, read-out: Solubility in Liquid 2.
The mark [7] stands for this setting: Liquid 3: water 25, ethanol 30, glycerol 15, propylene glycol 25, polysorbate 80 5 % v/v, read-out: Solubility in Liquid 3.
[8] abbreviates: Liquid 4: water 25, ethanol 25, glycerol 25, propylene glycol 25, polysorbate 80 0 % v/v, read-out: Solubility in Liquid 4.
Where [9] appears, read: Liquid 5: water 30, ethanol 30, glycerol 25, propylene glycol 15, polysorbate 80 0 % v/v, read-out: Solubility in Liquid 5.

For `C#C[C@]1(O)CC[C@H]2[C@@H]3CCC4=C[C@@H](O)CC[C@@H]4[C@H]3C(=C)C[C@@]21CC` [3-β-Hydroxy-desogestrel], in data set [1], the “Solubility in Liquid 1” value is recorded as “≧8.8 mg/mL”, the “Solubility in Liquid 2” value is reported as “≧7.0 mg/mL”, the “Solubility in Liquid 3” value is recorded as “≧6.1 mg/mL” and the “Solubility in Liquid 4” value was “≧6.9 mg/mL”. In data set [1], the “Solubility in Liquid 5” value is listed as “≧8.7 mg/mL”.
The solubility is how much of the substance goes into solution per volume. As for `C#C[C@]1(O)CC[C@H]2[C@@H]3CCC4=CCCC[C@@H]4[C@H]3C(=C)C[C@@]21CC` [Desogestrel], the solubility in data set [1] (setting [5]) amounted to 11300 µg/mL (≈ 36.4 mM); in data set [1] (setting [6]) it was 12400 µg/mL (≈ 39.9 mM); in data set [1] (setting [7]), 13400 µg/mL (≈ 43.2 mM); in data set [1] (setting [8]), 2100 µg/mL (≈ 6.76 mM); in data set [1] (setting [9]), 1500 µg/mL (≈ 4.83 mM).
For the compound `C#C[C@]1(O)CC[C@H]2[C@@H]3CCc4cc(O)ccc4[C@H]3CC[C@@]21C` [Ethinyl Estradiol], in data set [2], the “levels of ethinyl estradiol (in plasma) compared to oral ingestion of equivalent amounts using a tablet” value was “much higher levels”. Besides, the solubility in data set [1] (setting [5]) was at least 10900 µg/mL; in data set [1] (setting [6]), at least 10800 µg/mL; in data set [1] (setting [7]), at least 14100 µg/mL; in data set [1] (setting [8]), 11200 µg/mL (≈ 37.8 mM); in data set [1] (setting [9]) it was 12400 µg/mL (≈ 41.8 mM).
With `C#C[C@]1(O)CC[C@H]2[C@@H]3CCC4=CC(=O)CC[C@@H]4[C@H]3C(=C)C[C@@]21CC` [Etonogestrel, 13-ethyl-11methylene-17β-hydroxy-18,19-dinor-17α-pregnen-3-one], the “levels of etonogestrel (in serum) compared to oral ingestion of equivalent amounts using a tablet” value in data set [2] is reported as “much higher levels”. Also, the oral bioavailability entry in data set [3] is listed as “about 80%”. Also, the solubility in data set [1] (setting [5]) was 5500 µg/mL (≈ 17 mM); in data set [1] (setting [6]), 5800 µg/mL (≈ 17.9 mM); in data set [1] (setting [7]) it was 7300 µg/mL (≈ 22.5 mM); in data set [1] (setting [8]), 4200 µg/mL (≈ 12.9 mM); in data set [1] (setting [9]), 3400 µg/mL (≈ 10.5 mM). In addition, the “levels of etonogestrel (in serum) compared to oral ingestion of an equivalent amount of desogestrel using a tablet” value in data set [4] is “much higher levels”.
